# Results taken from patent publication US9611252B2 (LifeSci Pharmaceuticals, Inc., priority 2013, dated 2017).
# Where two headings read alike, the source gives them in different places.
# Molecular target: human Plasma Kallikrein (Homo sapiens (Human), UniProt P03952)
# Assay: In vitro enzyme inhibition of human plasma kallikrein (PFR-AMC cleavage)
# Type: biochemical
# Experimental: The ability of the compounds disclosed herein to inhibit human plasma kallikrein activity was quantified according to the procedures below.
# A 10 mM solution of the test compound was made in DMSO. […] A control tube containing only DMSO is included. 16 μL of each compound test solution was combined with 384 μL of assay buffer (50 mM Tris-HCl pH 7.5, 150 mM NaCl, 0.01% Triton X-100) to yield a “4× test compound buffer stock”.
# These solutions are hereby referred to as 4×hPK and 2×PFR-AMC, respectively.
# 50 μL was removed from this mixture and placed into duplicate wells on a Microfluor 1Black U-bottom microtiter plate (Thermo Scientific). This plate was incubated for 5 minutes at 37° C. To each well, 50 μL of pre-warmed 2×PFR-AMC was added to start the enzymatic reaction. Cleavage of PFR-AMC was monitored in a Biotek Synergy H4 reader set at 37° C. Readings are taken every 43 seconds for 1 hour. […] The IC50 is calculated using the Gen5 (Biotek Instruments).
# The ability of the compounds in Table 3 to inhibit human plasma kallikrein activity was determined.
# [1] = human plasma kallikrein, Pro-Phe-Arg-AMC substrate, 37° C., read-out: hPK IC50
# human Plasma Kallikrein, sequence (P03952 20-638): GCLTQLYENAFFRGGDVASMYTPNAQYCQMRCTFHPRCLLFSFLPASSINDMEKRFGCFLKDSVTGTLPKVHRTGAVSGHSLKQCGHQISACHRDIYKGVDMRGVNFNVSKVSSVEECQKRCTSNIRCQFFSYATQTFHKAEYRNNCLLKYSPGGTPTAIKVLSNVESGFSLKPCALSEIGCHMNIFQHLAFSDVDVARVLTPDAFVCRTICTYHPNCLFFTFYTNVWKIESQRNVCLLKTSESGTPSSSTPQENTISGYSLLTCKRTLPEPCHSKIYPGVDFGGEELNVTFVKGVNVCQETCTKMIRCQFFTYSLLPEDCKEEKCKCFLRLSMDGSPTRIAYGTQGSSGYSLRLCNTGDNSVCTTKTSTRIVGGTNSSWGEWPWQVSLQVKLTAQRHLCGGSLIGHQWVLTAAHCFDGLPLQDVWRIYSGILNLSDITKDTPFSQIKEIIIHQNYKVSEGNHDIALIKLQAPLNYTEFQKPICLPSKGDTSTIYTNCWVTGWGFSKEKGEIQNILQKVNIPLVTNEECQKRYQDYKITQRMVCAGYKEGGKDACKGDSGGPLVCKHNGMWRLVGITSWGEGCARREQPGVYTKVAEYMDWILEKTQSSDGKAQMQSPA
Structure (SMILES),IC50 [1],IC50
"N#Cc1cc(Cc2cc(C(=O)NCc3n[nH]c4ccc(Cl)cc34)ccn2)cc2cc(Cl)cnc12 [Example 54, 2-(3-chloro-8-cyano-quinolin-6-ylmethyl)-N-(5-chloro-1H-indazol-3-ylmethyl)-isonicotinamide]",< 100 nM,
"N#Cc1cnc2ccc(Cc3cc(C(=O)NCc4ccc5c(N)nccc5c4)ccn3)cc2c1 [Example 6, N-((1-aminoisoquinolin-6-yl)methyl)-2-((3-cyanoquinolin-6-yl)methyl)isonicotinamide]",< 100 nM,
"NC(=O)c1ccc2cc(Cc3cc(C(=O)NCc4cc5c(Cl)c[nH]c5cc4F)ccn3)ccc2n1 [Example 1, 6-((4-(((3-chloro-6-fluoro-1H-indol-5-yl)methyl)carbamoyl)pyridin-2-yl)methyl)quinoline-2-carboxamide]",100 to 1000 nM,
"Cc1cc(N)nc(C)c1CNC(=O)c1ccnc(Cn2cc3cc(Cl)ccc3cc2=O)c1 [Example 87, N-((6-amino-2,4-dimethylpyridin-3-yl)methyl)-2-((7-chloro-3-oxoisoquinolin-2(3H)-yl)methyl)isonicotinamide]",100 to 1000 nM,
"Cc1ccc2ncc(Cc3cc(C(=O)NCc4ccc5c(N)noc5c4)ccn3)cc2c1 [Example 48, N-((3-aminobenzo[d]isoxazol-6-yl)methyl)-2-((6-methylquinolin-3-yl)methyl)isonicotinamide]",> 10000 nM,
"O=C(NCc1cc2cn[nH]c2cc1F)c1ccnc(Cc2ccc3ncc(Cl)cc3c2)c1 [Example 32, 2-(3-chloro-quinolin-6-ylmethyl)-N-(6-fluoro-1H-indazol-5-ylmethyl)-isonicotinamide]",1000 to 10000 nM,
"N#Cc1cnc2ccc(Cc3cc(C(=O)NCc4cc5c(Cl)c[nH]c5cc4F)ccn3)cc2c1 [Example 5, N-((3-chloro-6-fluoro-1H-indol-5-yl)methyl)-2-((3-cyanoquinolin-6-yl)methyl)isonicotinamide]",< 100 nM,
NC(=O)c1ccc2cc(Cc3cc(C(=O)NCc4ccc5c(N)nccc5c4)ccn3)ccc2n1 [Example 4],100 to 1000 nM,
"CC(=O)NCc1ccc2cc(Cc3cc(C(=O)NCc4ccc5c(N)nccc5c4)ccn3)ccc2n1 [Example 10, 2-[2-(acetylamino-methyl)-quinolin-6-ylmethyl]-N-(1-amino-isoquinolin-6-ylmethyl)-isonicotinamide]",100 to 1000 nM,
"Cc1cc(N)ncc1CNC(=O)c1ccnc(Cc2cc(C#N)c3ncc(Cl)cc3c2)c1 [Example 53, N-((6-amino-4-methylpyridin-3-yl)methyl)-2-((3-chloro-8-cyanoquinolin-6-yl)methyl)isonicotinamide]",,100 to 1000 nM
"Cc1nc(N)c(C#N)cc1CNC(=O)c1ccnc(Cc2ccc3ncc(Cl)cc3c2)c1 [Example 26, N-((6-amino-5-cyano-2-methylpyridin-3-yl)methyl)-2-((3-chloroquinolin-6-yl)methyl)isonicotinamide]",1000 to 10000 nM,
"CNc1ccc(CNC(=O)c2ccnc(Cc3ccc4ncc(Cl)cc4c3)c2)c(C)n1 [Example 42, 2-((3-chloroquinolin-6-yl)methyl)-N-((2-methyl-6-(methylamino)pyridin-3-yl)methyl)isonicotinamide]",100 to 1000 nM,
"Cc1nc(N(C)C)ccc1CNC(=O)c1ccnc(Cc2ccc3ncc(Cl)cc3c2)c1 [Example 44, 2-((3-chloroquinolin-6-yl)methyl)-N-((6-(dimethylamino)-2-methylpyridin-3-yl)methyl)isonicotinamide]",> 10000 nM,
"Cc1cc(N)nc(C)c1CNC(=O)c1ccnc(Cc2ccc3nc(C(N)=O)ccc3c2)c1 [Example 2, 6-((4-(((6-amino-2,4-dimethylpyridin-3-yl)methyl)carbamoyl)pyridin-2-yl)methyl)quinoline-2-carboxamide]",100 to 1000 nM,
"Nc1ccc(CNC(=O)c2ccnc(Cc3ccc4ncc(Cl)cc4c3)c2)c(C(F)(F)F)n1 [Example 30, N-((6-amino-2-(trifluoromethyl)pyridin-3-yl)methyl)-2-((3-chloroquinolin-6-yl)methyl)isonicotinamide]",> 10000 nM,
"Cc1nc(N)c(C(N)=O)cc1CNC(=O)c1ccnc(Cc2ccc3ncc(Cl)cc3c2)c1 [Example 27, 2-amino-5-((2-((3-chloroquinolin-6-yl)methyl)isonicotinamido)methyl)-6-methylnicotinamide]",> 10000 nM,
"N#Cc1cc(Cc2cc(C(=O)NCc3ccc4[nH]cc(Cl)c4c3F)ccn2)cc2cc(Cl)cnc12 [Example 51, N-((3-chloro-4-fluoro-1H-indol-5-yl)methyl)-2-((3-chloro-8-cyanoquinolin-6-yl)methyl)isonicotinamide]",< 100 nM,
"Nc1noc2cc(CNC(=O)c3ccnc(Cc4ccc5ncc(Cl)cc5c4)c3)ccc12 [Example 36, N-((3-aminobenzo[d]isoxazol-6-yl)methyl)-2-((3-chloroquinolin-6-yl)methyl)isonicotinamide]",1000 to 10000 nM,
"N#Cc1cc(Cc2cc(C(=O)NCc3cc4c(Cl)c[nH]c4cc3F)ccn2)cc2cc(Cl)cnc12 [Example 49, N-((3-chloro-6-fluoro-1H-indol-5-yl)methyl)-2-((3-chloro-8-cyanoquinolin-6-yl)methyl)isonicotinamide]",< 100 nM,
"Cc1cc(N)nc(C)c1CNC(=O)c1ccnc(Cc2cnc3ccc(S(C)(=O)=O)cc3c2)c1 [Example 14, N-((6-amino-2,4-dimethylpyridin-3-yl)methyl)-2-((6-(methylsulfonyl)quinolin-3-yl)methyl)isonicotinamide]",100 to 1000 nM,

# Continued, in another order:
IC50 [1],Structure (SMILES),IC50
100 to 1000 nM,"CS(=O)(=O)c1ccc2cc(Cc3cc(C(=O)NCc4cc5c(Cl)c[nH]c5cc4F)ccn3)ccc2n1 [Example 135, N-((3-chloro-6-fluoro-1H-indol-5-yl)methyl)-2-((2-(methylsulfonyl)quinolin-6-yl)methyl)isonicotinamide]",
< 100 nM,"Cc1ccc2ccc(Cc3cc(C(=O)NCc4cc5c(Cl)c[nH]c5cc4F)ccn3)cc2n1 [Example 128, N-((3-chloro-6-fluoro-1H-indol-5-yl)methyl)-2-((2-methylquinolin-7-yl)methyl)isonicotinamide]",
100 to 1000 nM,"N#Cc1ccnc2ccc(Cc3cc(C(=O)NCc4cc5c(Cl)c[nH]c5cc4F)ccn3)cc12 [Example 137, N-((3-chloro-6-fluoro-1H-indol-5-yl)methyl)-2-((4-cyanoquinolin-6-yl)methyl)isonicotinamide]",
< 100 nM,"Cc1cc(N)nc(C)c1CNC(=O)c1ccnc(Cn2cc3cc(Cl)ccc3n2)c1 [Example 106, N-((6-amino-2,4-dimethylpyridin-3-yl)methyl)-2-((5-chloro-2H-indazol-2-yl)methyl)isonicotinamide]",
< 100 nM,"Cc1ccc2cc(Cc3cc(C(=O)NCc4ccc(N)nc4C)ccn3)ccc2n1 [Example 112, N-((6-amino-2-methylpyridin-3-yl)methyl)-2-((2-methylquinolin-6-yl)methyl)isonicotinamide]",
< 100 nM,"N#Cc1ccnc2ccc(Cc3cc(C(=O)NCc4ccc5c(N)nccc5c4)ccn3)cc12 [Example 136, N-((1-aminoisoquinolin-6-yl)methyl)-2-((4-cyanoquinolin-6-yl)methyl)isonicotinamide]",
< 100 nM,"O=C(NCc1cc2c(Cl)c[nH]c2cc1F)c1ccnc(Cc2cc(F)c3ncc(Cl)cc3c2)c1 [Example 90, N-(3-chloro-6-fluoro-1H-indol-5-ylmethyl)-2-(3-chloro-8-fluoro-quinolin-6-ylmethyl)-isonicotinamide]",
100 to 1000 nM,"CS(=O)(=O)c1ccc2cc(Cc3cc(C(=O)NCc4ccc5c(N)nccc5c4)ccn3)ccc2n1 [Example 134, N-((1-aminoisoquinolin-6-yl)methyl)-2-((2-(methylsulfonyl)quinolin-6-yl)methyl)isonicotinamide]",
100 to 1000 nM,"Cc1ccc2nc(S(C)(=O)=O)c(Cc3cc(C(=O)NCc4cc5c(Cl)c[nH]c5cc4F)ccn3)cc2c1 [Example 109, N-((3-chloro-6-fluoro-1H-indol-5-yl)methyl)-2-((6-methyl-2-(methylsulfonyl)quinolin-3-yl)methyl)isonicotinamide]",
< 100 nM,"Cc1cc2cc(Cc3cc(C(=O)NCc4cc5c(Cl)c[nH]c5cc4F)ccn3)ccc2cn1 [Example 133, N-((3-chloro-6-fluoro-1H-indol-5-yl)methyl)-2-((3-methylisoquinolin-6-yl)methyl)isonicotinamide]",
< 100 nM,"Cc1nc(N)ccc1CNC(=O)c1ccnc(Cc2cc(Cl)c3ncc(Cl)cc3c2)c1 [Example 101, N-((6-amino-2-methylpyridin-3-yl)methyl)-2-((3,8-dichloroquinolin-6-yl)methyl)isonicotinamide]",
100 to 1000 nM,"Cc1ccc2ccc(Cc3cc(C(=O)NCc4c(C)cc(N)nc4C)ccn3)cc2n1 [Example 129, N-((6-amino-2,4-dimethylpyridin-3-yl)methyl)-2-((2-methylquinolin-7-yl)methyl)isonicotinamide]",
< 100 nM,Cc1ccc2c(cnn2Cc2cc(C(=O)NCc3c(C)cc(N)nc3C)ccn2)c1 [Example 108],
< 100 nM,"O=C(NCc1cc2c(Cl)c[nH]c2cc1F)c1ccnc(Cc2cnc3ccc(F)cc3c2)c1 [Example 120, N-((3-chloro-6-fluoro-1H-indol-5-yl)methyl)-2-((6-fluoroquinolin-3-yl)methyl)isonicotinamide]",
< 100 nM,"Nc1nccc2cc(CNC(=O)c3ccnc(Cc4cnc5cc(Cl)ccc5c4)c3)ccc12 [Example 139, N-((1-aminoisoquinolin-6-yl)methyl)-2-((7-chloroquinolin-3-yl)methyl)isonicotinamide]",
